18 molecules from patent US10793530B2, “Benzylaminopyrazinylcyclopropanecarboxylic acids, pharmaceutical compositions and uses thereof” (Boehringer Ingelheim International GmbH, priority 2017, dated 2020) can be followed below.

Values after ≈ are worked out from the molar mass of the structure shown.

Sequence of human GPR40 receptor (O14842 whole entry): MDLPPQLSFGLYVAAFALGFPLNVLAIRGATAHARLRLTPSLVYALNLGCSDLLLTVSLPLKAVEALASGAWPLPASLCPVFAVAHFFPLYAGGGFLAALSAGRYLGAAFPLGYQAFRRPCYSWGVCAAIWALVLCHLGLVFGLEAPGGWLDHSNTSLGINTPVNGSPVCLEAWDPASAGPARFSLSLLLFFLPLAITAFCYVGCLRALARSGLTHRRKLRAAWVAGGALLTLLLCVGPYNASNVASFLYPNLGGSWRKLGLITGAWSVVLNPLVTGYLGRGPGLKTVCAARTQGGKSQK

The first data set has as its target human GPR40 receptor (Homo sapiens, UniProt O14842). Kind of data set: IP1 accumulation measurements using the IPOne assay system. Type of data set: cell-based. Particulars: 1321N1 cells stably expressing human GPR40 receptor; stimulated 1 h at 37° C. The procedure: IP1 is assayed according to the manufacturers description (Cisbio Bioassays, France). In brief, the assay is started by substitution of the culture medium by stimulation buffer (Hepes 10 mM, CaCl2 1 mM, MgCl2 0.5 mM, KCl 4.2 mM, NaCl 146 mM, glucose 5.5 mM and LiCl 50 mM, pH 7.4). Cells are stimulated for 1 h at 37° C., 5% CO2 by addition of the compounds that are diluted in stimulation buffer containing LiCl. Assays are stopped by adding HTRF-conjugates (IP1-d2 and Anti-IP1 cryptate Tb) and lysis buffer, provided by the manufacturer. After an incubation time of 1 h at room temperature plates are measured using an EnVision™, Perkin Elmer. The obtained fluorescence ratios at 665/615 […] are then used to calculate the pEC50 values using Assay Explorer 3.3 Software (Accelrys, Inc.) by interpolation using an IP1 reference curve and subsequent sigmoidal curve fitting allowing for a variable hill slope.
`Cc1cc(OCCC(C)(C)O)cc(C)c1-c1ccc(F)c(CNc2cnc([C@H]3C[C@@H]3C(=O)O)cn2)c1` [Example 19] displayed an EC50 of 16 nM. Same read-out and setting: in the case of `Cc1cc(-c2nnn(C)n2)cc(C)c1-c1ccc(F)c(CNc2cnc([C@H]3C[C@@H]3C(=O)O)cn2)c1` [Example 26] it was 6 nM; in that of `O=C(O)C1CC1c1cnc(NCc2cc(-c3c(F)cc(F)cc3F)ccc2F)cn1` (centres unmarked) [Example 45], 34 nM; in that of `O=C(O)C1CC1c1cnc(NCc2cc(-c3c(Cl)cccc3Cl)ccc2F)cn1` (centres unmarked) [Example 46], 6 nM. On to `O=C(O)C1CC1c1cnc(NCc2cc(-c3c(F)cccc3F)ccc2F)cn1` (centres unmarked) [Example 47], for which the midpoint of the response, the EC50, lay at 579 nM.

Take `COc1cc(C)c(-c2ccc(F)c(CNc3cnc(C4CC4C(=O)O)cn3)c2)c(C)c1` (centres unmarked) [Example 48]: the EC50 was 24 nM. The same measure, in the same setting: in the case of `Cc1cc(C(N)=O)cc(C)c1-c1ccc(F)c(CNc2cnc(C3CC3C(=O)O)cn2)c1` (centres unmarked) [Example 49] it was 10 nM. Turning to `COc1cc(OC)c(Cl)c(-c2ccc(F)c(CNc3cnc(C4CC4C(=O)O)cn3)c2)c1Cl` (centres unmarked) [Example 50], the EC50 was found to be 1390 nM. The molecule `N#CC1(c2ccccc2-c2ccc(F)c(CNc3cnc(C4CC4C(=O)O)cn3)c2)CC1` (centres unmarked) [Example 51] had an EC50 of 51 nM. On the same count and under the same terms, the figure for `COc1cc(OC)c(-c2ccc(F)c(CNc3cnc(C4CC4C(=O)O)cn3)c2)c(OC)c1` (centres unmarked) [Example 53] is 887 nM; for `O=C(O)C1CC1c1cnc(NCc2cc(-c3c(F)cc(OC4CC4)cc3F)ccc2F)cn1` (centres unmarked) [Example 54] it is 11 nM. The same measure, in the same setting: in the case of `Nc1cc(F)c(-c2ccc(F)c(CNc3cnc(C4CC4C(=O)O)cn3)c2)c(F)c1` (centres unmarked) [Example 55] it was 189 nM. Still for that read-out and setting: the figure for `O=C(O)C1CC1c1cnc(NCc2cc(-c3ccc(-c4cnco4)cc3)ccc2F)cn1` (centres unmarked) [Example 56] is 177 nM; for `N#Cc1cccc(C#N)c1-c1ccc(F)c(CNc2cnc(C3CC3C(=O)O)cn2)c1` (centres unmarked) [Example 57] it is > 10000 nM. Take `COc1cc(F)c(-c2ccc(F)c(CNc3cnc(C4CC4C(=O)O)cn3)c2)c(F)c1` (centres unmarked) [Example 58]: the EC50 came out at 896 nM. The same measure, in the same setting: the figure for `Cc1cccc(C)c1-c1ccc(F)c(CNc2cnc(C3CC3C(=O)O)cn2)c1` (centres unmarked) [Example 59] is 24 nM.

Test system in the next data set: not listed separately
Kind of data set: Aqueous solubility (buffer vs acetonitrile/water, LC-UV). It is filed as physicochemical. Particulars: kinetic from dmso stock, buffer pH 6.8, 24 h of shaking, DMSO concentration of 2.5%. The procedure: The aqueous solubility of the compounds of the invention is determined by comparing the amount dissolved in buffer to the amount in an acetonitrile/water (1/1) solution. Starting from a 10 mM DMSO stock solution aliquots are diluted with acetonitrile/water (1/1) or buffer, respectively. After 24 h of shaking, the solutions are filtrated and analyzed by LC-UV. The amount dissolved in buffer is compared to the amount in the acetonitrile solution. Solubility is usually being measured from 0.001 to 0.125 mg/mL at a DMSO concentration of 2.5%. If more than 90% of the compound is dissolved in buffer, the value is marked with “>”.
Consider `Cc1cc(OCCC(C)(C)O)cc(C)c1-c1ccc(F)c2c1CC[C@H]2Oc1ccc([C@H]2C[C@@H]2C(=O)O)cc1` [Example 17 in WO 2013/178575, reference compound], for which the solubility at 24 h was < 1 µg/mL.

On to `Cc1cc(OCCC(C)(C)O)cc(C)c1-c1ccc(F)c(CNc2cnc([C@H]3C[C@@H]3C(=O)O)cn2)c1` [Example 19], for which the solubility at 24 h came out at 72 µg/mL (≈ 146 µM). Still for that read-out and setting: in the case of `Cc1cc(-c2nnn(C)n2)cc(C)c1-c1ccc(F)c(CNc2cnc([C@H]3C[C@@H]3C(=O)O)cn2)c1` [Example 26] it was 47 µg/mL (≈ 99.3 µM).

Consider `Cc1cc(-c2nnn(C)n2)cc(C)c1-c1ccc(F)c2c1CC[C@H]2Oc1ccc([C@H]2C[C@@H]2C(=O)O)cc1` [Example 45 in WO 2013/178575, reference compound], for which the solubility at 24 h was < 1 µg/mL.

The term EC50 denotes the concentration that produces a half-maximal response. High values mean weaker potency, low ones greater potency. A word on the solubility: it is the concentration that dissolves in the medium under given conditions.
